Experimental data: article PMC11671014 (PLOS Pathogens, 2024)
Where two headings read alike, the source gives them in different places.

Columns and labels:
[1] = system: P. falciparum (strain 3D7A); parameters: method as in ref [1] Sanz et al., PloS one 2012; conditions: 10 x IC50; ref [1] Sanz et al., PloS one 2012; cited from earlier work
[2] = system: P. falciparum Brazilian field isolates; experiment: Ex vivo drug susceptibility of Brazilian field isolates (P. falciparum); type: cell-based
Description: (§1) Compounds were assayed on ten P. vivax isolates and seven P. falciparum Brazilian isolates collected from mono-infected patients, who had signed a written informed consent form to participate in the study, using previously described methods. The initial parasitemia ranged from 2,100–8,000 parasites/μL for P. vivax and 3,500–9,000 parasites/μL for P. falciparum isolates. Artesunate and chloroquine were assayed in parallel as standard compounds. The analyses included only the isolates that were incubated for ≥ 40 h with the compounds.

[3] = system: P. vivax Brazilian field isolates; experiment: Ex vivo drug susceptibility of Brazilian field isolates (P. vivax); type: cell-based
Description: as §1

[4] = system: P. falciparum liver stage schizont (NF175); experiment: Liver stage schizont assay in primary human hepatocytes (NF175); type: cell-based; conditions: Plasmodium falciparum, Hepatocyte, 96 h, four days
Description: Activity against liver stage parasites was performed using a modification of published procedures. Briefly, cryopreserved human primary hepatocytes (NF175: H1500.H15B+ Lot No. HC0-6, TebuBio or NF135: F00995-P Lot No. IRZ, BioIVT) were thawed and seeded at 18,000 cells per well in collagen-coated 384-well microtiter plates in medium containing 10% heat inactivated fetal bovine serum (hiFBS). Cells were cultured at 37°C in 5% CO2. For NF175, medium was replaced by fresh medium containing 10% hiFBS, 5 h post plating. For NF135, medium was replaced by medium containing 0.2% BSA, 24 h post plating. 48 h post plating, salivary glands from Plasmodium-NF175 or NF135-infected Anopheles stephensi mosquitoes were dissected, added to the hepatocytes (10,000 per well/ NF175; or 12,500 per well/ NF135) and allowed to infect for 3 hours. Sporozoites were then aspirated, and compounds diluted in medium containing 10% hiFBS or 0.2% BSA, were added to the hepatocytes. Medium containing 10% hiFBS or 0.2% BSA and compounds was refreshed daily for four days. […] Cells were imaged on a PicoExpress high content imager, and images were analysed automatically using CellReporterXpress software. Data were analysed by logistic regression using a four-parameter (Hill equation) model and a least-squares method to find the best fit.

Primary hepatocytes = experiment: Toxicity to primary hepatocyte host cells in the liver stage assay; type: cell-based, human; conditions: Homo sapiens, Hepatocyte
Description: (§2) Activity against liver stage parasites was performed using a modification of published procedures. Briefly, cryopreserved human primary hepatocytes (NF175: H1500.H15B+ Lot No. HC0-6, TebuBio or NF135: F00995-P Lot No. IRZ, BioIVT) were thawed and seeded at 18,000 cells per well in collagen-coated 384-well microtiter plates in medium containing 10% heat inactivated fetal bovine serum (hiFBS). Cells were cultured at 37°C in 5% CO2. For NF175, medium was replaced by fresh medium containing 10% hiFBS, 5 h post plating. For NF135, medium was replaced by medium containing 0.2% BSA, 24 h post plating. 48 h post plating, salivary glands from Plasmodium-NF175 or NF135-infected Anopheles stephensi mosquitoes were dissected, added to the hepatocytes (10,000 per well/ NF175; or 12,500 per well/ NF135) and allowed to infect for 3 hours. Sporozoites were then aspirated, and compounds diluted in medium containing 10% hiFBS or 0.2% BSA, were added to the hepatocytes. Medium containing 10% hiFBS or 0.2% BSA and compounds was refreshed daily for four days. Hepatocytes were fixed with ice-cold methanol and samples were blocked with 10% hiFBS in PBS. Schizonts were stained with rabbit anti-HSP70 in 10% hiFBS for 1–2 h followed by incubation with a mixture of secondary goat anti-rabbit AlexaFluor 594 antibody and 4′,6-diamidine-2′-phenylindole dihydrochloride (DAPI) in 10% hiFBS for 30 min. Samples were washed with PBS containing 0.05% Tween 20 between different steps. Cells were imaged on a PicoExpress high content imager, and images were analysed automatically using CellReporterXpress software. Data were analysed by logistic regression using a four-parameter (Hill equation) model and a least-squares method to find the best fit.

[5] = system: stage V NF54 strain male and female gametocytes; experiment: P. falciparum Dual Gamete Formation Assay (PfDGFA); type: cell-based; conditions: Plasmodium falciparum, 48 h
Description: Inhibition of the viability of stage V male and female gametocytes was assessed in the P. falciparum Dual Gamete Formation Assay (PfDGFA) as described previously. Briefly, mature stage V NF54 strain gametocytes were incubated with test molecules for 48 h in 384-well plates at 37°C. Gametogenesis was then triggered by cooling the plates to room temperature and addition of xanthurenic acid-containing activating medium (also containing anti-Pfs25 antibody (Mab 4B7) conjugated to a Cy3 fluorophore). Twenty minutes after activation, exflagellation was imaged in all wells of the plate using a x4 objective and automated brightfield microscopy. The plate was then incubated at 20°C for a further 24 h in the dark. Thereafter, female gamete formation was quantified by automated identification of Pfs25-positive cells. Automated counts were transformed to percent inhibition values with reference to positive 100 nM Cabamiquine (DDD498) and negative (DMSO) controls. Data represent the means of multiple independent biological repeats.

[6] = system: P. falciparum (3D7, ring stage) cultures; experiment: P. falciparum 3D7 72-h growth inhibition, lactate dehydrogenase (PfLDH) assay; type: cell-based; conditions: Plasmodium falciparum, 72 h exposure
Description: Routine analyses of antimalarial activity against P. falciparum 3D7 was tested by TCGLS (Kolkata, India) using the lactate dehydrogenase (PfLDH) growth inhibition assay as previously described. […] P. falciparum strain (3D7) was obtained from BEI Resources.

HepG2 cells = experiment: HepG2 72-h viability, CellTiter-Glo; type: cell-based; conditions: Homo sapiens, 72 h exposure
Description: The HepG2 (Human hepatocyte carcinoma) cell line was procured from ATCC (American Type Culture Collection, Manassas, USA; HB-8065) and viability assessed using CellTiter-Glo luminescent cell viability assay reagents (Promega). For the assay, 2,000 cells/well were plated in 384-well plates 24 h prior to the experiment and incubated at 37°C in a CO2 incubator. The medium was removed; and cells were treated with fresh medium containing either vehicle (0.5% DMSO) or serially diluted compounds or doxorubicin (1.3 nM to 25 μM) in a final volume of 50 μL/well and further incubated for 72 h at 37°C in a CO2 incubator. […] Following incubation, 25 μL of medium was discarded and 25 μl of CellTiter-Glo reagent was added to each well and the plate was kept on a plate shaker for 15 min at 25°C with shaking at 300 rpm. Luminescence signals were measured in a PHERAstar FSX reader (BMG LABTECH).

PfTyrRS [7] = target: T1, PfTyrRS (Plasmodium falciparum, UniProt Q8IAR7); experiment: ATP consumption by PfTyrRS (Kinase Glo); type: biochemical; conditions: PfTyrRS 25 nM, ATP 10 μM, tyrosine 200 μM, cognate tRNA^Tyr 4.8 μM, 37°C 1 h; read-out: Inhibition of PfTyrRS (Kinase Glo) IC50
T1 sequence (Q8IAR7 entry or part of it): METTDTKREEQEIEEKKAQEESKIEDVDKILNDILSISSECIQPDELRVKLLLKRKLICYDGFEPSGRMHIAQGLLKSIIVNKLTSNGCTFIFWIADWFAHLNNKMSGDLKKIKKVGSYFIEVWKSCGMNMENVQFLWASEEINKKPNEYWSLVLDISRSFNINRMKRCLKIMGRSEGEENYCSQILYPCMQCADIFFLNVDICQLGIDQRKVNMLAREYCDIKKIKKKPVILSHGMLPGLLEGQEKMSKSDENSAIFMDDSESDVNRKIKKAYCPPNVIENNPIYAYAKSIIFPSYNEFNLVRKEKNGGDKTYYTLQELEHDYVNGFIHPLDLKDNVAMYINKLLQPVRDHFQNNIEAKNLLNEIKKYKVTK
Description: Consumption of ATP was measured using a luciferase-based assay as per the manufacturer’s instructions (Kinase-Glo Luminescent Kinase Assay, Promega).

PfTyrRS [8] = target: T1, PfTyrRS; experiment: Differential scanning fluorimetry (DSF) of PfTyrRS; type: binding; conditions: for ΔTm at 50 µM: 50 μM sulfamate, tyrosine, PftRNA^Tyr, 37°C 2 h, read-out: PfTyrRS binding (DSF) Delta Tm; for ΔTm at 50 µM / PfTyrRS Tm: ATP; for Kd: estimated from DSF with an irreversible thermal unfolding model, read-out: PfTyrRS binding (DSF) apparent KD; for PfTyrRS Tm: with sulfamate, tyrosine and tRNA, apo 49.9 ± 0.6
Description: The effect on ML471 and analogues on the thermal stability of TyrRS enzymes was assayed as previously described. […] SYPRO Orange (Sigma-Aldrich; 5,000X concentrate in DMSO) was added to the reaction mixture at a final concentration of 5X. 25 μL of the sample was added into each well of a 96-well qPCR plate (Applied Biosystems). The plate was sealed and analysed using StepOnePlus Real-Time PCR system (Applied Biosystems). The samples were heated from 20°C to 90°C with a 1% continuous gradient. The thermal unfolding curve was plotted as the first derivative curve of the raw fluorescence values. The melting temperature (Tm), defined as the peak of the first derivative curve, was used to assess the thermal stability of protein-ligand complexes.

[9] = system: Pf3D7-pfs16-CBG99 gametocytes, immature (stage II/III) and mature (stage V); experiment: Gametocyte killing assay (luciferase); type: cell-based; conditions: Plasmodium falciparum, 48 h
Description: Gametocytogenesis was induced on a tightly synchronised (>97% rings) asexual parasite culture (Pf3D7-pfs16-CBG99 (kind gift from Pietro Alano), 0.5% parasitemia and 6% hematocrit) with a combination of nutrient starvation and a decrease in hematocrit, as previously described. For immature gametocytes (>90% stage II/III), cultures were exposed to 50 mM N-acetyl glucosamine (NAG) on days 1–4 to eliminate residual asexual parasites and harvested at days 5–6. For mature (>95% stage V) gametocytes, NAG treatment occurred from days 3–7 and harvest at day 13. Stage II/III and V gametocyte cultures (2 % gametocytaemia 1.5 % haematocrit, 150 μL/well) were exposed to compounds and incubated at 37°C for 48 h under hypoxic conditions, after which luciferase activity was determined with a non-lysing D-luciferin substrate (1mM in 0.1M citrate buffer, pH 5.5, 100 μL) and bioluminescence was detected with a 2 s integration time with a GloMax-Multi Detection System with Instinct software.

[10] = system: P. falciparum liver stage schizont (NF135); experiment: Liver stage schizont assay in primary human hepatocytes (NF135); type: cell-based; conditions: Plasmodium falciparum, Hepatocyte, 96 h, four days
Description: as §2

[11] = system: P. falciparum (strain 3D7A); experiment: Parasite Reduction Rate (PRR) estimation; type: cell-based, Plasmodium falciparum; conditions: 10 x IC50
Description: PRR was assessed using a standardized method. P. falciparum (strain 3D7A, MRA-151), contributed by David Walliker, was obtained through BEI Resources, NIAID, NIH. Cultures of parasites (~90% ring stage) were treated with compounds for 120 h, with daily renewal. Samples of parasites were taken at 0, 24, 48, 72, 96 and 120 h. Compounds were washed out and four independent 3-fold serial dilutions were established in 96-well plates, with fresh RBCs and culture medium. After 18 days, and again at 22 days, samples were taken to examine growth using SYBR Green I in an EnVision Multilabel Plate Reader (Perkin Elmer) and analysed using Excel and Grafit 5.0 software. The human biological samples were sourced ethically, and their research use was in accord with the terms of the informed consents under an IRB/EC approved protocol.

[12] = read-out: Early stage gametocytes IC50
[13] = read-out: Mature stage gametocytes IC50

## C[C@@H]1CC[C@H]2[C@@H](C)C(=O)O[C@@H]3O[C@@]4(C)CC[C@@H]1[C@]32OO4 [Artemisinin]
[1]
  Lag phase: 0 h
  Log PRR: > 4.8
  PCT99.9%: < 24 h

## C[C@H]1[C@H](OC(=O)CCC(=O)O)O[C@@H]2O[C@@]3(C)CC[C@H]4[C@H](C)CC[C@@H]1[C@@]24OO3 [Artesunate]
[2]; Plasmodium falciparum; range over n = 7 isolates; read-out: EC50 range, P. falciparum Brazilian field isolates
  EC50: 0.8 to 3.1 nM
[2]; Plasmodium falciparum; read-out: Median EC50, P. falciparum Brazilian field isolates
  EC50: 2.2 nM
[3]; Plasmodium vivax; range over n = 10 isolates; read-out: EC50 range, P. vivax Brazilian field isolates
  EC50: 0.8 to 3.5 nM
[3]; Plasmodium vivax; read-out: Median EC50, P. vivax Brazilian field isolates
  EC50: 1.7 nM

## O=C1C(O)=C([C@H]2CC[C@H](c3ccc(Cl)cc3)CC2)C(=O)c2ccccc21 [Atovaquone]
[4]
  IC50: 7 ± 3.9 nM
Primary hepatocytes; host cells of the NF175 experiment
  IC50: > 1000 nM
[1]
  Lag phase: 48 h
  Log PRR: 2.9
  PCT99.9%: 90 h
  Slope: -0.060

## O=C(NCCN1CCCC1)c1cc(-c2ccc(CN3CCOCC3)cc2)nc2ccc(F)cc12 [Cabamiquine, reference compound]
[5]; female, read-out: Dual gamete formation assay (female) IC50(48h)
  IC50: 2.2 ± 0.1 nM
[5]; male, read-out: Dual gamete formation assay (male) IC50(48h)
  IC50: 2.3 ± 0.4 nM

## CCN(CC)CCCC(C)Nc1ccnc2cc(Cl)ccc12 (centres unmarked) [Chloroquine]
[2]; Plasmodium falciparum, read-out: EC50 range, P. falciparum Brazilian field isolates
  EC50: 172 to 520 nM
[2]; Plasmodium falciparum, read-out: Median EC50, P. falciparum Brazilian field isolates
  EC50: 286 nM
[3]; Plasmodium vivax, read-out: EC50 range, P. vivax Brazilian field isolates
  EC50: 104 to 560 nM
[3]; Plasmodium vivax, read-out: Median EC50, P. vivax Brazilian field isolates
  EC50: 143 nM
[1]
  Lag phase: 0 h
  PCT99.9%: 33.8 h
  Slope: -0.094

## CC(=O)c1nn([C@@H]2O[C@H](COS(N)(=O)=O)[C@@H](O)[C@H]2O)c2ncnc(N)c12 [ML111]
[6]
  IC50: 4.3 ± 0.7 nM
HepG2 cells
  IC50: > 50000 nM
PfTyrRS [7]
  IC50: 34000 ± 14000 nM
PfTyrRS [8]
  ΔTm at 50 µM: 15.1 ± 0.2 °C
  Kd: 0.7 nM
  PfTyrRS Tm: 65.0 ± 0.5 °C

## Nc1ncnc2c1c(C1CC1)nn2[C@@H]1O[C@H](COS(N)(=O)=O)[C@@H](O)[C@H]1O [ML864]
[6]
  IC50: 2.5 ± 0.6 nM
HepG2 cells
  IC50: 21300 nM
PfTyrRS [7]
  IC50: 8500 ± 4500 nM
PfTyrRS [8]
  ΔTm at 50 µM: 17 ± 0.1 °C
  Kd: 0.3 nM
  PfTyrRS Tm: 66.9 ± 0.5 °C

## CS(=O)(=O)c1ccc(-c2cnc(N)c(-c3ccc(C(F)(F)F)nc3)c2)cc1 [MMV390048, reference compound]
[9]; [12]
  IC50: 138 ± 8 nM
[9]; [13]
  IC50: 150 ± 20 nM
[10]
  IC50: 23.3 ± 13.3 nM
Primary hepatocytes; host cells of the NF135 experiment
  IC50: > 100 nM

## CN(C)c1ccc2nc3ccc(=[N+](C)C)cc-3sc2c1 [Methylene blue, reference compound]
[9]; [12]
  IC50: 62 ± 11 nM
[9]; [13]
  IC50: 353 ± 63 nM

## CCc1nc(N)nc(N)c1-c1ccc(Cl)cc1 [Pyrimethamine, reference compound]
[11]
  Lag phase: 24 h
  Log PRR: 3.7
  PCT99.9%: 56 h
  Slope: -0.078
